Reference: patent US9580749B2, “Dyes and labeled molecules” (Biotium, Inc., priority 2005, dated 2017)
“Also recorded” adds a separate entry of the source. Each block holds one molecule with its values, some of them ahead of it.

How the values were obtained:
[1] = tested on: salmon sperm DNA or a mixture of single-stranded 20mer oligonucleotide; test: Fluorescence of AOAO-12 in response to different amounts of DNA (microtiter plate reader); type: binding; conditions: 0.1 μM dye in PBS
Description: It can be seen that fluorescence linearly responded to DNA up to 2.0 μg/ml (inset). At higher concentrations of DNA, the response became non-linear.

[2] = Thermo-stability of dye at 96° C. in PCR reaction buffers with PCR products; type: physicochemical; conditions: 96° C. for 40 minutes
Description: Specifically, AOAO-12 was kept in PCR reaction buffers with PCR products. The mixture was heated to 96° C. for 40 minutes. During the heating course, the mixture was brought down to 60° C. briefly to monitor the fluorescence.

[3] = tested on: PCR reaction; test: Real-time PCR (qPCR) amplification of ATPB fragment in pTOPO plasmid with a fluorescent monitoring dye; type: biochemical; conditions: for inhibition of PCR (Ct delay) by the dye: increasing dye concentration
[4] = tested on: amplicons HMBS, RPL4, SDHA, TBP; test: Melting curves of amplicons after qPCR; type: biochemical; conditions: for melting peaks of the HMBS amplification reaction (primer dimer): HMBS amplicon, FIG. 15
Description: SYBR Green I was reported to be advantageous in that the melting temperature of an amplicon could be detected after qPCR amplification. The melting temperature provides valuable information about the amplicon, as it is a function of the size and GC content of the amplicon. No melting temperatures could be collected from TaqMan reactions. Melting curves from four amplicons, i.e., HMBS (SEQ ID NO: 4), RPL4 (SEQ ID NO: 5), SDHA (SEQ ID NO: 6), and TBP (SEQ ID NO: 7) were measured from reactions amplified in the presence of AOAO-12 (Panel A) or SYBR Green (Panel B) and are presented in FIG. 15.
It has been reported that qPCR reactions with SYBR Green I tend to form primer-dimers, and the tendency is closely related to the concentration of SYBR Green I. It has been postulated that SYBR Green I binds to DNA so tightly that it interferes with the performance of Taq DNA polymerase. As AOAO-12 has less affinity to DNA, the interference should be alleviated.

[5] = tested on: salmon sperm DNA; test: Absorbance and fluorescence emission spectra of dyes without or with DNA in PBS buffer; type: physicochemical; conditions: for red shift of absorbance upon binding to DNA, relative to free dye: 2 mg/ml salmon sperm DNA; for red shift of absorbance upon binding to DNA, relative to free dye / spectra of the free dyes: intramolecular H-dimer (hairpin) formation: PBS buffer; for spectra of the free dyes: intramolecular H-dimer (hairpin) formation: FIG. 5
Description: The spectra were normalized to 1 in the absorbance plot. […] The heterodimeric dye AORO-7 comprises a monomeric AO dye and a fluorescent non-nucleic acid rosamine RO dye. Two emission peaks, contributed by AO and RO moieties, respectively, were recorded.

[6] = stored in Tris buffer at 4° C.; cited from earlier work
[7] = tested on: nucleic acid; conditions: cited from earlier work

Structure (SMILES): CN(C)c1ccc2cc3ccc(N(C)C)cc3[n+](CCCCCC(=O)NCCOCCNC(=O)CCCCC[n+]3c4cc(N(C)C)ccc4cc4ccc(N(C)C)cc43)c2c1 [AOAO-12]
DNA concentration up to which fluorescence responded linearly [1]: up to 2.0 μg/ml
fluorescence bound to double stranded versus single stranded DNA [1]: fluoresces more intensely when bound to double stranded DNA than when bound to single stranded DNA
stability (fluorescence monitored at 60° C.) [2]: stable at 96 °C for 40 minutes substantially without loss of fluorescence
final fluorescence signal strength relative to SYBR Green I ([3]; qPCR, dye at higher usable concentration): several folds higher; also recorded: several times higher
inhibition of PCR (Ct delay) by the dye ([3]; qPCR): without exhibiting inhibition; also recorded: little or no inhibition
melting peaks of the HMBS amplification reaction (primer dimer) [4]: only a single, clean, and specific peak
melting temperatures of amplicons relative to SYBR Green I ([4]; four amplicons, lower than SYBR Green I): about 2 degrees
DNA binding affinity ([4]; relative to SYBR Green I): binds DNA with high affinity but less tightly than SYBR Green I
height of melting peaks ([4]; relative to SYBR Green I): markedly higher

red shift of absorbance upon binding to DNA, relative to free dye [5]: 5 nm
new shorter wavelength peak in absorbance ([5]; free dye in PBS buffer, without DNA): 471 nm
Structure (SMILES): CN(C)c1ccc2cc3ccc(N(C)C)cc3[n+](CCCCCC(=O)NCCCCCNC(=O)CCCCC[n+]3c4cc(N(C)C)ccc4cc4ccc(N(C)C)cc43)c2c1 [AOAO-7]

spectra of the free dyes: intramolecular H-dimer (hairpin) formation ([5]; without DNA): has less spectral shift
Structure (SMILES): CN1/C(=C/c2cc[n+](CCC[N+](C)(C)CCC[N+](C)(C)CCC[n+]3ccc(/C=C4\Sc5ccccc5N4C)c4ccccc43)c3ccccc23)Sc2ccccc21.[I-].[I-].[I-].[I-] [TOTO-1, reference compound]
inhibition of PCR (Ct delay) by the dye ([3]; qPCR): completely inhibited the PCR reaction

Structure (SMILES): CCCN(CCCN(C)C)c1cc(/C=C2/Sc3ccccc3N2C)c2ccccc2[n+]1-c1ccccc1 [SYBR Green I, reference compound]
chemical stability on storage [6]: decomposes significantly over the course of a few days
inhibition of PCR (Ct delay) by the dye ([3]; qPCR): exhibited inhibition to PCR reactions; also recorded: significantly inhibits PCR at higher dye concentration
melting peaks of the HMBS amplification reaction (primer dimer) [4]: has an extra primer dimer peak

absorption peak of rosamine dye component [5]: 600 nm
emission peak of rosamine dye component [5]: ~620 nm
absorption peak of AO component ([5]; DNA): 503 nm
emission peak of AO component ([5]; DNA): 523 nm
Structure (SMILES): CC1=CC(C)(C)Nc2cc3c(cc21)C(c1ccc(C(=O)NCCCCCC(=O)NCCCCCNC(=O)CCCCC[n+]2c4cc(N(C)C)ccc4cc4ccc(N(C)C)cc42)cc1)=c1cc2c(cc1O3)=NC(C)(C)C=C2C [AORO-7]

Structure (SMILES): CN(C)c1ccc2cc3ccc(N(C)C)cc3nc2c1 [AO, acridine orange]
absorption wavelength λabs ([7]; DNA bound): 500 nm
affinity for nucleic acid [7]: very low
extinction coefficient ([7]; in M-1·cm-1 (unit assumed)): > 50,000

red shift of absorbance upon binding to DNA, relative to free dye [5]: 10 nm
Structure (SMILES): CN(C)CCC[n+]1c2cc(N(C)C)ccc2cc2ccc(N(C)C)cc21.[I-] [DMAO]

Structure (SMILES): CN(C)c1ccc2cc3ccc(=[N+](C)C)cc-3oc2c1.[Cl-] [pyronin Y]
absorption maximum [7]: 548 nm
emission maximum [7]: 565 nm

Structure (SMILES): C[n+]1c(C=C2C=CN(CCCCCC(=O)CNCCOCCNC(=O)CCCCCN3C=CC(=Cc4sc5ccccc5[n+]4C)c4ccccc43)c3ccccc32)sc2ccccc21 [TOTO-12]
Ct and fluorescence intensity in qPCR relative to TO ([3]; FIG. 11): improved Ct and improved fluorescence intensity relative to TO

Structure (SMILES): C[n+]1c(C=C2C=CN(CCCCCC(=O)NCCNC(=O)CCCCCN3C=CC(=Cc4sc5ccccc5[n+]4C)c4ccccc43)c3ccccc32)sc2ccccc21 [TOTO-3]
spectra of the free dyes: intramolecular H-dimer (hairpin) formation ([5]; without DNA): forms an intramolecular H-dimer, or a hairpin structure
